pEC50: −log10 of the molar value.

What is called pEC50 is the negative decadic logarithm of the EC50, by convention in mol/L.

One assay has as its target T1, human PPARγ2 (Homo sapiens, UniProt P37231).
T1 construct: the amino acids 182 to 505 of human PPARγ2; expressed in transfected cells
T1 sequence (P37231 182-505): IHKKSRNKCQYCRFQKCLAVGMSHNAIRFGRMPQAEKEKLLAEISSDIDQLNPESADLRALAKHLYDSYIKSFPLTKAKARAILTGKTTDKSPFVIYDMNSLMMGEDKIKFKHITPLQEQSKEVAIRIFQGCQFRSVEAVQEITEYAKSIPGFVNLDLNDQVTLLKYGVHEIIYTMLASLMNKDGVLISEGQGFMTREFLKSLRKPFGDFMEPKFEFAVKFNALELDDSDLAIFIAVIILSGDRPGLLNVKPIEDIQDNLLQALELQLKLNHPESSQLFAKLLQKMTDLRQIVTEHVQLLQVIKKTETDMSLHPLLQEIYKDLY
The assay can be described thus: PPARγ activation activity, Gal4-PPARγ2 LBD luciferase transfection assay in COST cells. The note with it: Gal4-human PPARγ2 LBD luciferase reporter, 16 hours, rosiglitazone = 100%. Type of assay: cell-based. As for the experimental part:
The agonistic activity of the compounds of the invention on PPARγ was measured based on the transfection assay using COST cells (DS Pharma Biomedical Co., Ltd., Osaka, Japan), which are the cell line derived from the kidney of the African green monkey. COST cells were cultured under 5% CO2 concentration, and DMEM medium containing 10% fetal bovine serum, glutamic acid, and antibiotics was used as a medium.
As an expression vector, a chimera in which DNA binding domain of Gal4, which is a yeast transcription factor, and ligand binding domain of human PPARγ2 are fused, i.e., a fused product between the amino acids 1 to 147 of Gal4 transcription factor and the amino acids 182 to 505 of human PPARγ2, was used. Furthermore, as a reporter vector, a firefly luciferase containing five copies of Gal4 recognition sequence in the promoter region was used. Plasmid transfection to the cells was performed according to a method which uses jetPEI (trade name, manufactured by Funakoshi Co., Ltd., Tokyo, Japan). Furthermore, β-galactosidase expression vector was employed as an internal standard.
After the transfection of the cells, the medium was replaced with a DMEM medium (containing 1% serum) added with the compound, and the cells were further cultured for 16 hours. After that, the luciferase activity and β-galactosidase activity in the cell lysis solution were measured.
For the present test, dimethyl sulfoxide (DMSO) was used for dissolution and dilution of the test compounds, and during the cell treatment, the DMSO concentration in DMEM medium (containing 1% serum) was adjusted to 0.1%. As a positive compound, rosiglitazone (trade name, manufactured by ALEXIS Corporation, Switzerland) was used. The luciferase activity (%) of the test compounds (1 to 30 μmol/L) was calculated when the luciferase activity of rosiglitazone (3 to 10 μmol/L) is 100% and the luciferase activity in the absence of the test compound is 0%. The 50% effective concentration of the test compound (EC50, 50% effect concentration) was calculated by using SAS Preclinical Package Ver 5.0 (trade name, manufactured by SAS institute Japan Co., Tokyo, Japan), which is a statistical analysis program.
Under the same condition, the PPARγ activation activity of telmisartan, i.e., EC50, was 1 to 5 μM. In addition, it was confirmed that compounds of Examples not shown in Table 2 also have PPARγ activation activity at a concentration of 30 μM.

For assay [1], the target named is T2, angiotensin II type 1 receptor (Oryctolagus cuniculus, UniProt P34976).
T2 construct: By using a specimen of isolated rabbit blood vessels; from tissue; host or cells: rabbit thoracic aorta ring (New Zealand White, male)
T2 sequence (P34976 1-359): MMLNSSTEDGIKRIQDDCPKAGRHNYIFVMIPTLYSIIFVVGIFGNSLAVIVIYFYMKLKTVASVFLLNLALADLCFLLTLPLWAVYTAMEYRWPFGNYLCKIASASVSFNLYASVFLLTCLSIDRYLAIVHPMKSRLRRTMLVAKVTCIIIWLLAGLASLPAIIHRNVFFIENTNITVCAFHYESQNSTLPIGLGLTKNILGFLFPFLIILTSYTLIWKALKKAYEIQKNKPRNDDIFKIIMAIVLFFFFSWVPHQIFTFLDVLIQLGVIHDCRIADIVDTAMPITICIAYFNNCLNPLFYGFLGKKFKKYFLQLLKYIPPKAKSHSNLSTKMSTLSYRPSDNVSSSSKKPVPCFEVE
The assay can be described thus: Angiotensin II antagonistic activity in isolated rabbit blood vessels (angiotensin II-induced contraction of thoracic aorta ring). The note with it: 0.1 μM compound, angiotensin II (10 nM)-induced contraction, read-out: Angiotensin II activity inhibition rate (%) at 0.1 μM concentration. As to the method:
By using a specimen of isolated rabbit blood vessels, antagonistic activity of the compounds of the invention against angiotensin II type 1 receptor was estimated from a dose-response curve of angiotensin II-induced blood vessel contraction. Specifically, the specimen of thoracic aorta ring of a rabbit (New Zealand White: male, 2.4 to 3.0 kg) was suspended in a magnus bath filled with Krebs-Henseleite buffer (composition: 118 mM NaCl, 4.7 mM KCl, 2.55 mM CaCl2, 1.18 mM MgSO4, 1.18 mM KH2PO4, 24.88 mM NaHCO3, and 11.1 mM D-glucose), and angiotensin II (10 nM)-induced contraction was obtained in the presence of the compounds of each example (1 nmol to 10 μmol/L). During the measurement, the inside temperature of the magnus bath was maintained at 37° C. and the bath was continuously ventilated with a sufficient amount of mixed gas (95% O2 and 5% CO2). The angiotensin II-induced contraction was converted into a relative value (%) that is based on the angiotensin II (10 nM)-induced contraction in the absence of the compounds of each example. From the concentration-response curve obtained therefrom, 50% inhibition concentration (IC50 value) was calculated by using SAS Preclinical Package Ver 5.0 (trade name, manufactured by SAS institute Japan Co., Tokyo, Japan), which is a statistical analysis program.

`CCCCc1nc(C)n(-c2ncc(OCC)cn2)c(=O)c1Cc1ccc(-c2ccccc2S(=O)(=O)NC(=O)C2CC2)cc1` [Example 8, N-{4′-{[4-butyl-1-(5-ethoxypyrimidin-2-yl)-2-methyl-6-oxo-1,6-dihydropyrimidin-5-yl]methyl}biphenyl-2-ylsulfonyl}cyclopropanecarboxamide]: the pEC50 on human PPARγ2 was 5.43. Moreover, in assay [1], the inhibition at 0.1 µM is 77.5%.

Source of the values: patent US20120122906A1, “NOVEL SULFONAMIDE DERIVATIVE AND PHARMACEUTICAL PRODUCT CONTAINING SAME” (KOWA COMPANY, LTD., priority 2009, published 2012).
